From patent US20210317141A1, “OXOPYRIDO[1,2-A]PYRIMIDINE COMPOUNDS FOR THE TREATMENT AND PROPHYLAXIS OF BACTERIAL INFECTION” (Hoffmann-La Roche Inc., priority 2018, published 2021)
Values after ≈ are worked out from the molar mass of the structure shown.

Tests used:
E. coli (ATCC 25922) = assay: Minimal Inhibitory Concentration (MIC) assay; type: cell-based; settings: Escherichia coli, ATCC25922; CAMHB, 20 hours at 35° C.; read-out: MIC (μg/mL) E. coli ATCC 25922
Experimental: The in vitro potency of compounds to inhibit E. coli (ATCC 25922) growth was assessed by MIC (Minimal Inhibitory Concentration) assay. Samples were prepared from 10 mM DMSO stock solutions. After serial 2-fold dilution in DMSO in a master plate (Greiner, Cat No: 651201), 180 μL sterile distilled water was added to 20 μL each aliquot of the samples. Then […], diluted compounds were transferred into a new assay plate (Costar, 3599).
The growth medium […] Mueller Hinton Broth (CAMHB) was prepared by adding the 20 mg per liter CaCl2) and 20 mg per liter MgCl2 into the MHB medium (Jianglai Company, sterilized).
Vials of each of the test microorganisms were maintained frozen in the vapor phase of a liquid nitrogen freezer. Took out the bacteria E. coli ATCC 25922 (KWIKSTIK, 0335K) from liquid nitrogen freezer, thawed it in room temperature, and diluted the bacterial in the CAMHB medium to achieve a final inoculum of 5×10^5 CFU/mL. 90 μL CAMHB with bacteria was dispensed to the assay plate and pipetted 5 times.
Then the assay plates were incubated for 20 hours at 35° C. in ambient air. Following incubation, the MIC (μg/mL), the lowest concentration of drug that inhibits visible growth of the microorganism was read and recorded throw the microscope.

[1] = Cytotoxicity assay (HepG2, CellTiter-Blue); type: cell-based; settings: human, HepG2 cells, 3 days treatment
Experimental: The cytotoxicity of compounds of present invention was assessed by HepG2 assay. HepG2 cells (ATCC HB-8065™) were seeded into 96-well plates (1.2×10^4 cells per well) and treated with compounds for 3 days, cell viability was measured at day 3 post compound treatment using the CellTiter-Blue® Cell Viability Assay (Promega, Cat. No. G8082). 20 μL of Cell titer blue buffer were added to each well of the cells, incubated for 3 hours at 37° C., and the fluorescence value was measured by a plate reader (Molecular Device SpectraMax M2). The CC50 value of each compound is plotted with GraphPad Prism using four parameter logistic equation.

E. coli (BW25113) = assay: 50% growth inhibitory concentration (IC50) determination assay, E. coli; type: cell-based; settings: Escherichia coli, growth inhibition, Iso-Sensitest broth, OD 600 nm over 16 h, 35±2° C., read-out: IC50 (μM) E. coli K12 BW25113
Experimental: (§1) The in vitro antimicrobial activity of the compounds against E. coli (BW25113, obtained from Coli Genetic Stock Center, #7636) and K. pneumoniae (ATCC10031) was determined according to the following procedure:
(§2) The assay used a 10-points Iso-Sensitest broth medium to measure quantitatively the in vitro activity of the compounds against E. coli BW25113 and K. pneumoniae ATCC 10031.
(§3) Stock compounds in DMSO were serially two-fold diluted (range from 50 to 0.097 μM final concentration) in 384 wells microtiter plates and inoculated with 49 μL the bacterial suspension in Iso-Sensitest broth medium to have a final cell concentration of ˜5×10^5 CFU/mL in a final volume/well of 50 μL/well. Microtiter plates were incubated at 35±2° C.
(§4) Bacterial cell growth was determined with the measurement of optical density at k=600 nm each 20 minutes over a time course of 16 h.
(§5) Growth inhibition was calculated during the logarithmic growth of the bacterial cells with determination of the concentration inhibiting 50% (IC50) of the growth.

[2] = system: K. pneumoniae (ATCC10031); assay: 50% growth inhibitory concentration (IC50) determination assay, K. pneumoniae; type: cell-based; settings: Klebsiella pneumoniae, growth inhibition, Iso-Sensitest broth, OD 600 nm over 16 h, * = detection limit
Experimental: as §1, §2, §3, §4, §5

[3] = Lyophilisation solubility assay (LYSA); type: physicochemical; settings: aqueous buffer, thermodynamic from solid; 0.05 M phosphate buffer, pH 6.5; * = detection limit
Experimental: The solubility of compounds of present invention was assessed by LYSA assay. Samples were prepared in duplicate from 10 mM DMSO stock solutions (20 μL) diluted in 30 μL pure DMSO. After evaporation of DMSO with a centrifugal vacuum evaporator, the residue was dissolved in 0.05 M phosphate buffer (150 μL, pH 6.5), stirred for one hour and shook for two hours. After one night, the solution was filtered using a microtiter filter plate. Then the filtrate and its 1/10 dilution were analyzed by HPLC-UV. In addition, a four-point calibration curve was prepared from the 10 mM stock solutions and used for the solubility determination of the compounds.

| SMILES | MIC (E. coli (ATCC 25922)) | CC50 at 3 days [1] | IC50 (E. coli (BW25113)) | IC50 [2] | solubility thermodynamic [3] |
| --- | --- | --- | --- | --- | --- |
| CNc1cc(F)c(F)c2c1[nH]c1ncc(-c3ccc4ncc(C(=O)O)c(=O)n4c3)c(N3CCOCC3)c12 [Example 1.10, 7-(5,6-Difluoro-8-(methylamino)-4-morpholino-9H-pyrido[2,3-b]indol-3-yl)-4-oxo-4H-pyrido[1,2-a]pyrimidine-3-carboxylic acid] | 0.017 µg/mL (≈ 0.0336 µM) | > 100 µM | 3.58 µM | ≤ 0.098 µM | 63 µg/mL (≈ 124 µM) |
| CNc1c(F)c(F)cc2c1[nH]c1ncc(-c3ccc4ncc(C(=O)O)c(=O)n4c3)c(N3CCOCC3)c12 [Example 1.13, 7-(6,7-Difluoro-8-(methylamino)-4-morpholino-9H-pyrido[2,3-b]indol-3-yl)-4-oxo-4H-pyrido[1,2-a]pyrimidine-3-carboxylic acid] | 0.0909 µg/mL (≈ 0.179 µM) | 80.1 µM | 2.86 µM | ≤ 0.098 µM | 162 µg/mL (≈ 320 µM) |
| CNc1cc(F)cc2c1[nH]c1nc(Oc3cnc(C)nc3)nc(N3C[C@H]4C[C@@H]3C[C@H]4C)c12 [GP-6, reference compound] | 0.127 µg/mL (≈ 0.293 µM) | 5.6 µM | 0.17 µM | ≤ 0.098 µM | < 1 µg/mL |
